The text below walks through data of US20140288040A1, “SUBSTITUTED BENZYLAMINE COMPOUNDS, THEIR USE IN MEDICINE, AND IN PARTICULAR THE TREATMENT OF HEPATITIS C VIRUS (HCV) INFECTION” (ASTEX THERAPEUTICS LIMITED, priority 2011, published 2014).

Where a name gives a salt, the structure may show the parent alone.

For the first assay, the target named is T1, HCV NS3 protease (full length NS34a) (Hepatitis C virus genotype 1b, UniProt P26663).
T1 construct: The protease activity of the full length NS34a was measured using a FRET-based assay; made in house
T1 sequence (P26663 1658-1711): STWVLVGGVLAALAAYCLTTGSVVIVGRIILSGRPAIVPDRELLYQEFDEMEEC
T1 sequence (P26663 1027-1657): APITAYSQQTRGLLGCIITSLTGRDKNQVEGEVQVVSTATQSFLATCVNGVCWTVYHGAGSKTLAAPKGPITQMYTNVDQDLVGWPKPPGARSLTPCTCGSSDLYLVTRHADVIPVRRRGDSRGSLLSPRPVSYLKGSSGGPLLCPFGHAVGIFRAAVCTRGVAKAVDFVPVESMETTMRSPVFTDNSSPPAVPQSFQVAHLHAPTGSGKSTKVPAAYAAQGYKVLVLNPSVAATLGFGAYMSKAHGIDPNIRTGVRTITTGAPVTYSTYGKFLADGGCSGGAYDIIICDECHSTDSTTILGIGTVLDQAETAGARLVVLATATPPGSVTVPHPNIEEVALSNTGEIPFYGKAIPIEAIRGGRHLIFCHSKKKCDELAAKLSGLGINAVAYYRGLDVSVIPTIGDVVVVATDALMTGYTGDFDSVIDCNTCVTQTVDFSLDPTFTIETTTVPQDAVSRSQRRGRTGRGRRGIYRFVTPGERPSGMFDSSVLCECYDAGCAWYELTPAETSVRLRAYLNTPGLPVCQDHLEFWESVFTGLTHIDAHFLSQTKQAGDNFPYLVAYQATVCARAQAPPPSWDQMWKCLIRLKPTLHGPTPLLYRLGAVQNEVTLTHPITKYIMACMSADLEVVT
Put plainly: HCV NS3 protease assay (FRET, full length NS34a). The format is biochemical. The note with it: IC50 values of 10-150 μM against the protease activity of the full length NS34a, or at least 40% inhibition of protease activity at a concentration of 100 μM. How it is done: The HCV NS3 protease functions have been extensively studied and are considered as potential targets for antiviral therapy: see for example the many references listed in the introductory section of this application. Therefore, the activity of the compounds of the invention as anti-HCV agents was assessed using a full length HCV NS3 protease.
The protease activity of the full length NS34a was measured using a FRET-based assay utilizing a peptide substrate derived from the NS4AB cleavage site (Anaspec) and labelled at one end with a quencher (QXL520) and at the other with a fluorophore (5-FAMsp). NS34a (produced in-house by literature methods) was incubated with test compounds and peptide substrate in 50 mM Tris pH8, 20 mM DTT, 1% CHAPS, 10% glycerol and 5% DMSO. The reaction was followed by monitoring the change in fluorescence on a Molecular Devices Gemini plate reader for 30 minutes at room temperature. Initial rates were calculated from the progress curves using SoftMax Pro (Molecular Devices). IC50 values were then calculated from replicate curves using Prism GraphPad software.
Turning to `CC[C@@H](N[C@@H](CC(N)=O)C(C)C)c1ccc(Cl)c(Oc2ccccc2)c1F` [Example 142], the 50% inhibitory concentration (IC50) was 10 to 150 µM.

Consider `CC[C@@H](N)c1ccc(Cl)c(Oc2ccc(Cl)nn2)c1F` [Example 153], for which the concentration for half-maximal inhibition (IC50) was in the range of 10 to 150 µM.

Take `CC[C@@H](N[C@@H](C)CC(=O)NCC(=O)OC)c1ccc(Cl)c(Oc2ccccc2)c1F` [Example 159]: the IC50 lay within 10 to 150 µM.

`CC[C@@H](N[C@H](C)CC(=O)N(C)OC)c1ccc(Cl)c(Oc2ccccc2)c1F` [Example 160] came in with an IC50 of 10 to 150 µM.

On to `CC[C@@H](N[C@@H](C)CC(=O)N(C)OC)c1ccc(Cl)c(Oc2ccccc2)c1F` [Example 161], for which the IC50 fell in the range of 10 to 150 µM.

On to `CC[C@@H](N)c1ccc(Cl)c(Oc2ccc(C(F)(F)F)cc2)c1F` [Example 175], for which the half-inhibitory concentration (IC50) is 10 to 150 µM.

`CC[C@@H](N[C@H](C)CC(=O)NCC(N)=O)c1ccc(Cl)c(Oc2ccccc2)c1F` [Example 177] registered an IC50 of 10 to 150 µM.

`CC[C@@H](N)c1ccc(Cl)c(Oc2cccc(C(=O)NCCC#N)c2)c1F` [Example 191] registered a half-maximal inhibitory concentration (IC50) of 10 to 150 µM.

Still in this assay, the particulars now being: protease activity of full length NS34a, FRET peptide substrate; read-out: Activity IC50.
Regarding `CC[C@H](N)c1ccc(Cl)c(Oc2cccc(C(=O)N(C)Cc3cnn(Cc4ccccc4)c3)c2)c1F` [Example 138, 3-[3-((S)-1-Amino-propyl)-6-chloro-2-fluoro-phenoxy]-N-(1-benzyl-1H-pyrazol-4-ylmethyl)-N-methyl-benzamide.hydrochloride], the IC50 is 0.63 µM.

For the compound `CCNC(=O)O[C@H](C)c1cccc(Oc2c(Cl)ccc([C@@H](N)CC)c2F)c1` [Example 139, Ethyl-carbamic acid (R)-1-{3-[3-((S)-1-amino-propyl)-6-chloro-2-fluoro-phenoxy]-phenyl}-ethyl ester.hydrochloride], the IC50 came out at 1.3 µM.

On to `CCNC(=O)O[C@@H](C)c1cccc(Oc2c(Cl)ccc([C@@H](N)CC)c2F)c1` [Example 140], for which the concentration for half-maximal inhibition (IC50) turned out to be 1.3 µM.

Take `CC[C@H](N)c1ccc(Cl)c(Oc2cccc(C(=O)N(C)Cc3cn[nH]c3)c2)c1F` [Example 141, 3-[3-((S)-1-Amino-propyl)-6-chloro-2-fluoro-phenoxy]-N-methyl-N-(1H-pyrazol-4-ylmethyl)-benzamide.hydrochloride]: the IC50 was 2.8 µM.

On to `CC[C@H](Nc1ccncc1)c1ccc(F)c(Oc2ccccc2)c1F` [Example 144, [(S)-1-(2,4-Difluoro-3-phenoxy-phenyl)-propyl]-pyridin-4-yl-amine. hydrochloride], for which the IC50 is 0.4 µM.

With `CC[C@@H](N[C@H](C)CC(=O)NCCO)c1ccc(Cl)c(Oc2ccccc2)c1F` [Example 146], the half-maximal inhibitory concentration (IC50) turned out to be 3.1 µM.

`CC[C@@H](N[C@@H](C)CC(=O)NCCO)c1ccc(Cl)c(Oc2ccccc2)c1F` [Example 147]: the 50% inhibitory concentration (IC50) amounted to 0.11 µM.

Turning to `CC[C@@H](N[C@@H](C)c1[nH]cnc1C)c1ccc(Cl)c(Oc2ccccc2)c1F` [Example 148], the IC50 was determined as 1.7 µM.

For `CC[C@@H](N)c1ccc(Cl)c(Oc2cccc(F)c2)c1F` [Example 149], the IC50 came to 3 µM.

With `CC[C@@H](N)c1ccc(Cl)c(Oc2ccc(F)cc2)c1F` [Example 150], the half-maximal inhibitory concentration (IC50) worked out at 2 µM.

In the case of `CC[C@@H](N)c1ccc(Cl)c(Oc2cccc(NS(C)(=O)=O)c2)c1F` [Example 151], the IC50 stood at 3.1 µM.

For the compound `CC[C@@H](N)c1ccc(Cl)c(Oc2cccc([N+](=O)[O-])c2)c1F` [Example 152], the half-maximal inhibitory concentration (IC50) is 6.9 µM.

For `CC[C@@H](N)c1ccc(Cl)c(Oc2ccc(N)cn2)c1F` [Example 156, 6-[3-((R)-1-Amino-propyl)-6-chloro-2-fluoro-phenoxy]-pyridin-3-ylamine.dihydrochloride], the 50% inhibitory concentration (IC50) turned out to be 6.2 µM.

Take `CC[C@@H](N)c1ccc(Cl)c(Oc2cccc(CNS(C)(=O)=O)c2)c1F` [Example 157]: the IC50 was determined as 2.1 µM.

Turning to `CC[C@@H](N)c1ccc(Cl)c(Oc2ccc(C#N)cc2)c1F` [Example 158], the IC50 was 0.42 µM.

On to `CC[C@@H](N)c1ccc(Cl)c(Oc2cccc(C(F)(F)F)c2)c1F` [Example 162], for which the IC50 turned out to be 6.8 µM.

Regarding `CC[C@@H](N)c1ccc(Cl)c(Oc2ccc(C#N)c(F)c2)c1F` [Example 166], the half-inhibitory concentration (IC50) is 2.1 µM.

Regarding `CC[C@@H](N)c1ccc(Cl)c(Oc2ccnc(Cl)c2)c1F` [Example 167], the IC50 came out at 6.1 µM.

Turning to `CC[C@@H](N)c1ccc(Cl)c(Oc2ccnc(C)c2)c1F` [Example 168], the IC50 was determined as 3.7 µM.

Take `CC[C@@H](N)c1ccc(Cl)c(Oc2ccncc2)c1F` [Example 169]: the IC50 turned out to be 4.8 µM.

For the compound `CC[C@@H](N)c1ccc(Cl)c(Oc2cccc(S(C)(=O)=O)c2)c1F` [Example 170], the half-inhibitory concentration (IC50) was 2.3 µM.

Regarding `CC[C@@H](N)c1ccc(Cl)c(Oc2cccc(NC(=O)NCC(F)(F)F)c2)c1F` [Example 171, 1-{3-[3-((R)-1-Amino-propyl)-6-chloro-2-fluoro-phenoxy]-phenyl}-3-(2,2,2-trifluoro-ethyl)-urea.hydrochloride], the IC50 came out at 7.7 µM.

In the case of `CC[C@@H](N)c1ccc(Cl)c(Oc2cccc(C(N)=O)c2)c1F` [Example 172], the half-maximal inhibitory concentration (IC50) came out at 3.7 µM.

Regarding `CC[C@@H](N)c1ccc(Cl)c(Oc2cccc(CNC(C)=O)c2)c1F` [Example 173], the IC50 amounted to 3.5 µM.

`CC[C@@H](N)c1ccc(Cl)c(Oc2ccc(S(C)(=O)=O)cc2)c1F` [Example 174]: the 50% inhibitory concentration (IC50) stood at 6.2 µM.

With `CC[C@@H](N)c1ccc(Cl)c(Oc2ccc(Cl)cc2)c1F` [Example 176], the IC50 came to 1.7 µM.

On to `CC[C@@H](N)c1ccc(Cl)c(Oc2ccc(CC#N)cc2)c1F` [Example 179], for which the half-maximal inhibitory concentration (IC50) came to 0.61 µM.

Consider `CC[C@@H](N)c1ccc(Cl)c(Oc2ccc(C)nc2)c1F` [Example 180], for which the IC50 came to 3.7 µM.

`CC[C@@H](N)c1ccc(Cl)c(Oc2ccc(-c3nnc(C)o3)cc2)c1F` [Example 181]: the concentration for half-maximal inhibition (IC50) came to 2.3 µM.

Turning to `CC[C@@H](N)c1ccc(Cl)c(Oc2ccc(N(C)C)cc2)c1F` [Example 182], the IC50 was found to be 5.7 µM.

For the compound `CC[C@@H](N)c1ccc(Cl)c(Oc2ccc(CO)cc2)c1F` [Example 183], the IC50 is 1.2 µM.

For `CC[C@@H](N)c1ccc(Cl)c(Oc2ccc(C(C)OC)cc2)c1F` (stereo partly drawn) [Example 184], the IC50 stood at 6.1 µM.

Turning to `CC[C@@H](N[C@H](C)CC(N)=O)c1ccc(Cl)c(Oc2ccc(C#N)cc2)c1F` [Example 185], the concentration for half-maximal inhibition (IC50) amounted to 1.5 µM.

Take `CCc1ccc(Oc2c(Cl)ccc([C@H](N)CC)c2F)cc1` [Example 187]: the half-inhibitory concentration (IC50) was determined as 6.9 µM.

Take `CC[C@@H](N)c1ccc(Cl)c(Oc2ccc(C(C)O)cc2)c1F` (stereo partly drawn) [Example 188]: the IC50 turned out to be 2.7 µM.

Regarding `CC[C@@H](N)c1ccc(Cl)c(Oc2ccc(S(=O)(=O)NC)cc2)c1F` [Example 189], the IC50 was determined as 8.6 µM.

Turning to `CC[C@@H](N)c1ccc(Cl)c(Oc2ccc(F)c(COC(=O)NCC3CC3)c2)c1F` [Example 190, Cyclopropylmethyl-carbamic acid 5-[3-((R)-1-amino-propyl)-6-chloro-2-fluoro-phenoxy]-2-fluoro-benzyl ester.hydrochloride], the concentration for half-maximal inhibition (IC50) is 1.8 µM.

Take `CC[C@@H](N)c1ccc(Cl)c(Oc2ccc(C3(C#N)CC3)cc2)c1F` [Example 192]: the half-maximal inhibitory concentration (IC50) worked out at 3.1 µM.

Consider `CC[C@@H](N)c1ccc(Cl)c(Oc2ccc3c(c2)CCO3)c1F` [Example 193], for which the 50% inhibitory concentration (IC50) was found to be 0.96 µM.

As to `CC[C@@H](N)c1ccc(Cl)c(Oc2ccc(C3(CO)CC3)cc2)c1F` [Example 194], the IC50 was found to be 3.1 µM.

The term IC50 denotes the midpoint of a concentration-inhibition curve.
